In EP2662079A1 (Ordway Research Institute, Inc., priority 2012, dated 2013):
Several values for one entry are separate records, joined by “and”; a condition that tells them apart may be missing. Equal values may be shown once.

Tests used:
h-MTC cells = assay: RNA microarray of MTC cells; assay type: cell-based, human
Text: Treatment of animals with unmodified or nanoparticulate Tetrac. […] Estimation of tumor response to Tetrac or nanoparticulate Tetrac. […] Statistical analysis for CAM and xenograft studies. […] Statistical significance was defined as P <0.05. RNA microarray analysis.

MDA-MB-231 cells [1] = assay: Cell proliferation in perfusion bellows cell culture system; assay type: cell-based; conditions: Homo sapiens, 10^-6 M (Tetrac equivalent), added at day 0, by day 9
Experimental: Tetrac and nanoparticulate Tetrac. Tetrac was custom-synthesized by Peptido GMBH (Bembach, Germany). The proprietary Tetrac nanoparticle was custom-synthesized by covalently-bonding of the outer ring hydroxyl of Tetrac to PLGA via an intervening linker. […] Cell culture for definition of effects of Tetrac formulations on tumor cell proliferation. MDA-MB-231 cells were purchased from ATCC (Manassas, VA). Cells were maintained until use in DMEM that contained 10% FBS. The incubator conditions were 5% CO2/95% 02 and 37° C. The action of unmodified Tetrac and nanoparticulate on MDA-MB-231 cells was determined in a perfusion bellows cell culture system we have recently described for quantitating pharmaceutical agent pharmacodynamics in vitro. (See Lin et al., J Steroid Biochem Mol Biol 113: 182-188 (2009)). In brief, the cell culture system is a disposable bioreactor capable of high density cell culture for studies of anti-cancer drugs. Bellows-induced alternate flow of culture medium and air through porous matrices where cells are grown provides a relatively low shear, high aeration, foam-free culture environment. Medium level is raised and lowered to submerge and expose matrices to create a dynamic interface between air and media on the cell surface. […] Flakes thereafter were sampled at regular intervals (Figure 44), subjected to trypsinization and the harvested cells counted. […]

MDA-MB-231 cells [2] = assay: RNA microarray of MDA-MB-231 cells; assay type: cell-based, human
Experimental: Tetrac and nanoparticulate Tetrac. Tetrac was custom-synthesized by Peptido GMBH (Bembach, Germany). The proprietary Tetrac nanoparticle was custom-synthesized by covalently-bonding of the outer ring hydroxyl of Tetrac to PLGA via an intervening linker. […] Cell culture for definition of effects of Tetrac formulations on tumor cell proliferation. MDA-MB-231 cells were purchased from ATCC (Manassas, VA). Cells were maintained until use in DMEM that contained 10% FBS. The incubator conditions were 5% CO2/95% 02 and 37° C. The action of unmodified Tetrac and nanoparticulate on MDA-MB-231 cells was determined in a perfusion bellows cell culture system we have recently described for quantitating pharmaceutical agent pharmacodynamics in vitro. (See Lin et al., J Steroid Biochem Mol Biol 113: 182-188 (2009)). In brief, the cell culture system is a disposable bioreactor capable of high density cell culture for studies of anti-cancer drugs. Bellows-induced alternate flow of culture medium and air through porous matrices where cells are grown provides a relatively low shear, high aeration, foam-free culture environment. Medium level is raised and lowered to submerge and expose matrices to create a dynamic interface between air and media on the cell surface. Anchorage-dependent cells are grown on plastic flakes in the system. The flakes facilitate harvesting of whole cells for analysis. In the present studies, 5 x 10^7 cells were seeded in each perfusion flask and incubated at 37 C overnight. Flakes thereafter were sampled at regular intervals (Figure 44), subjected to trypsinization and the harvested cells counted. When Tetrac or nanoparticulate Tetrac were initially added to the system, flasks contained 20-50 x 10^6 cells. Cell cultures were re-fed with 1% FBS-containing medium. Studies were carried out in duplicate flasks and replicated once. Cell culture for harvesting of RNA. MDA-MB-231 cells were maintained in DMEM that was supplemented with 10% FBS in a 5% CO2/95% 02 air incubator at 37°C. For two days prior to exposure to Tetrac and nanoparticulate Tetrac, cells were maintained in 0.25% FBS that was stripped of estrogen and thyroid hormone. (See Lin et al., Biochemistry 42: 7571-7579 (2003)). RNA microarray and analysis. Microarray analysis experiments were conducted as described previously. (See Glinsky et al., J Clin Invest 115: 1503-1521 (2005); Glinsky et al., J Clin Invest 113: 913-923 (2004); Glinsky et al., Clin Cancer Res 10: 2272-2283 (2004); and Glinsky et al., Mol Carcinog 37: 209-221 (2003)). In brief, the array hybridization and processing, retrieval of data and analysis utilized standard sets of Affymetrix (Santa Clara, CA) equipment, software and protocols in the microarray core facility of Ordway Research Institute. […] Sample purity and integrity were verified with an Agilent BioAnalyzer (Santa Clara, CA). Expression analysis of 54,675 transcripts for each sample was by Affymetrix HG-U133A Plus 2.0 arrays. MAS5.0 software was used for data retrieval and analysis and concordant changes of gene expression in response to unmodified Tetrac and nanoparticulate Tetrac were defined by two-tailed t test at a threshold p value < 0.01.
Expression of ~54,000 transcripts was analyzed in control and drug-treated cultures, using Affymetrix Human Genome U133 plus 2.0 microarrays. Subsequent analysis was focused on genes affected by treatment at p < 0.01. There was 93% concordance between Tetrac and Tetrac NP in terms of genes affected; notable disparities included downregulation of epidermal growth factor receptor (EGFR) by Tetrac NP and no affect of unmodified Tetrac on this gene.

U87MG cells = assay: Neutral comet assay (DNA double-strand breaks); assay type: cell-based, human
Experimental: For the comet assay studies of induction and repair of DSBs in U87MG cells, cells were treated as described above. However, for the single dose induction ofDSBs doses ranged from 0-30 Gy, and for the study of the repair ofDSBs in irradiated cells, a large single dose of 60 Gy requiring approximately 1 h of irradiation time was given. Appropriate temperature controls (on ice) were run to insure that no decrement in survival was produced by the 1 h exposure to 0°C.
U87MG cells on plastic slides were exposed to 2 nM Tetrac for 1 h at 37°C. These slides were then placed on crushed ice and irradiated with doses from 0 to 75 Gy. Slides were immersed in lysing solution at 50°C for 2 hours. Slides were washed, and placed into a gel electrophoresis unit. Electrophoresis was carried out at 0.66 V/cm for 25 min. Cells were stained with ethidium bromide and image analysis was done using an epifluoresence microscope at a total magnification of 400 X. We also used an excitation filter of 515-535 nm and a barrier filter at 590 nm. The mean tail moment (TM) which is expressed in arbitrary units was then calculated. TM was calculated using a CCD camera and software. Approximately 350 comets were analyzed per condition.

[3] = gene expression, listed as unmodified Tetrac
[4] = single dose of 30 Gy, Tetrac-treated cells

O=C(O)Cc1cc(I)c(Oc2cc(I)c(O)c(I)c2)c(I)c1 [Tetrac, 3,3',5,5'-tetraiodothyroacetic acid]
expression of VEGFA (h-MTC cells): significantly decreased expression
expression of apoptosis-associated genes (CASP2, DFFA, FAF1, CASP8AP2) (h-MTC cells): caused expression
expression of thrombospondin (THBS1) (h-MTC cells): increase
inhibition at 1 µM (MDA-MB-231 cells [1]): > 30%
expression of epidermal growth factor receptor (EGFR) (MDA-MB-231 cells [2]; 10^-7 M, 24 h): no affect
Change: CBY1 (MDA-MB-231 cells [2]; gene expression): significantly increased
Change: CDKN2C (Cyclin-dependent kinase inhibitor) (MDA-MB-231 cells [2]; gene expression): ↑
Change: Cyclins (Cell cycle regulators) (MDA-MB-231 cells [2]; gene expression): ↓
Change: THBS1 (MDA-MB-231 cells [2]; gene expression): strongly induced
Change: BCL2L14 (MDA-MB-231 cells [2]; [3]): not a significant stimulatory action
Change: CASP2 (MDA-MB-231 cells [2]; [3]): not a significant stimulatory action
Change: MCL1 (MDA-MB-231 cells [2]; [3]): did not significantly affect
Change: XIAP (MDA-MB-231 cells [2]; [3]): also acted on XIAP
increase of the slow repair part of the curve (U87MG cells): approximately 2.2 fold
sensitization factor (steady-state DSB levels) (U87MG cells; 0 Gy): 2.2
mean tail moment (U87MG cells; 0 radiation dose, 1 h Tetrac at 37°C, arbitrary units): 12.4 and 13.1
slope of DSB repair versus time (U87MG cells; after 30 Gy of x-rays (control -4.36)): -1.20
relative percentage of fast repair (U87MG cells; [4]): 16%
relative percentage of slow repair (U87MG cells; [4]): 84%
inhibition of the repair of DNA double strand breaks (U87MG cells; vs control U87MG cells): 72.5%
